Assay: Dissolution of peptide acetate in a dichloromethane solution of lactic acid-glycolic acid copolymer
Type: physicochemical
Settings: 8.0 g dichloromethane

SMILES: CCNC(=O)[C@@H]1CCCN1C(=O)[C@H](CCCNC(=N)N)NC(=O)[C@H](CC(C)C)NC(=O)[C@@H](CC(C)C)NC(=O)[C@H](Cc1ccc(O)cc1)NC(=O)[C@H](CO)NC(=O)[C@H](Cc1c[nH]c2ccccc12)NC(=O)[C@H](Cc1c[nH]cn1)NC(=O)[C@@H]1CCC(=O)N1 [Leuprorelin acetate]
- dissolution in copolymer/dichloromethane solution (400 mg in 3.6 g lactic acid/glycolic acid=75/25 copolymer of Example 12 (GPC Mw 10,000, end-group Mn 4,300)): clear homogeneous solution
- dissolution in copolymer/dichloromethane solution (400 mg in 3.6 g lactic acid/glycolic acid=75/25 copolymer, GPC Mw 18,000, end-group Mn 30,000 (RG752-15057)): could not be successfully dissolved

From patent US6528093B1, “Sustained-release preparation” (Takeda Chemical Industries, Ltd., priority 1992, dated 2003)
